Data published in PubChem BioAssay AID1963830 (Molecular Pharmacology Branch, DTP, NCI, 2024).

Test system: 922993-354-T-J3-PDC complex spheroid viability
Assay: Anticancer human tumor 922993-354-T-J3-PDC patient-derived endometrial carcinoma cell line growth inhibition [POLQ]
Details: for IC50: curve of first compound; for viability, T/C: stronger effect = lower value
How it was run: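 Complex spheroid viability model combining PDC tumour cells with endothelial (HUVEC) and MSC stromal cells. Novobiocin, ART-558 or RP6685 were tested singly and in combination with standard and investigational anticancer drugs. Each was titrated in half-log steps from near clinical Cmax, or from 10 microM where Cmax was unknown.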

[1] = second compound 0.0316 µM, first compound 0.0316 µM
[2] = second compound 0.0316 µM, first compound 0.1 µM
[3] = second compound 0.0316 µM, first compound 0.316 µM
[4] = second compound 0.0316 µM, first compound 1 µM
[5] = second compound 0.0316 µM, first compound 3.16 µM
[6] = second compound 0.0316 µM, first compound 10 µM
[7] = second compound 0.1 µM, first compound 0.0316 µM
[8] = second compound 0.1 µM, first compound 0.1 µM
[9] = second compound 0.1 µM, first compound 0.316 µM
[10] = second compound 0.1 µM, first compound 1 µM
[11] = second compound 0.1 µM, first compound 3.16 µM
[12] = second compound 0.1 µM, first compound 10 µM
[13] = second compound 0.316 µM, first compound 0.0316 µM
[14] = second compound 0.316 µM, first compound 0.1 µM
[15] = second compound 0.316 µM, first compound 0.316 µM
[16] = second compound 0.316 µM, first compound 1 µM
[17] = second compound 0.316 µM, first compound 3.16 µM
[18] = second compound 0.316 µM, first compound 10 µM
[19] = second compound 1 µM, first compound 0.0316 µM
[20] = second compound 1 µM, first compound 0.1 µM
[21] = second compound 1 µM, first compound 0.316 µM
[22] = second compound 1 µM, first compound 1 µM
[23] = second compound 1 µM, first compound 3.16 µM
[24] = second compound 1 µM, first compound 10 µM
[25] = second compound 3.16 µM, first compound 0.0316 µM
[26] = second compound 3.16 µM, first compound 0.1 µM
[27] = second compound 3.16 µM, first compound 0.316 µM
[28] = second compound 3.16 µM, first compound 1 µM
[29] = second compound 3.16 µM, first compound 3.16 µM
[30] = second compound 3.16 µM, first compound 10 µM
[31] = second compound 10 µM, first compound 0.0316 µM
[32] = second compound 10 µM, first compound 0.1 µM
[33] = second compound 10 µM, first compound 0.316 µM
[34] = second compound 10 µM, first compound 1 µM
[35] = second compound 10 µM, first compound 3.16 µM
[36] = second compound 10 µM, first compound 10 µM
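Further: spheroids exposed to the agents for one week.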
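Wherever viability, T/C is given: 100% = DMSO vehicle control wells.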

`CC1COCCN1c1cc(-c2ccnn2C)c2ccnc(-c3ccn[nH]3)c2n1` (centres undefined) + Cc1cccc(N(C)C(=O)C2C(O)CCN2c2nc(C)cc(C(F)(F)F)c2C#N)c1 gave an IC50 (second compound 0.0316 µM) of 167 nM, an IC50 (second compound 0.1 µM) of 137 nM and an IC50 (second compound 0.316 µM) of 197 nM. The IC50 (second compound 1 µM) was 164 nM, the IC50 (second compound 3.16 µM) was 174 nM and the IC50 (second compound 10 µM) was 166 nM. The viability, T/C [1] was 99.9%, the viability, T/C [2] was 63.3% and the viability, T/C [3] was 35.3%. For the same compound, the viability, T/C [4] was 10.8%, the viability, T/C [5] was 10.2% and the viability, T/C [6] was 9.85%. For the same compound, the viability, T/C [7] was 96.1%, the viability, T/C [8] was 58.2% and the viability, T/C [9] was 28.4%. The viability, T/C [10] was 13.8%, the viability, T/C [11] was 8.45% and the viability, T/C [12] was 10.4%. For the same compound, the viability, T/C [13] was 97.5%, the viability, T/C [14] was 75.9% and the viability, T/C [15] was 32.9%. For the same compound, the viability, T/C [16] was 8.6%, the viability, T/C [17] was 9.15% and the viability, T/C [18] was 10.9%. It also gave a viability, T/C [19] of 105%, a viability, T/C [20] of 64.6% and a viability, T/C [21] of 31.4%. The viability, T/C [22] was 11.2%, the viability, T/C [23] was 8.14% and the viability, T/C [24] was 9.87%. The viability, T/C [25] was 87.2%, the viability, T/C [26] was 71.5% and the viability, T/C [27] was 26.9%. It also gave a viability, T/C [28] of 10.6%, a viability, T/C [29] of 8.05% and a viability, T/C [30] of 9.86%. The viability, T/C [31] was 92.5%, the viability, T/C [32] was 66.5% and the viability, T/C [33] was 28.7%. For the same compound, the viability, T/C [34] was 14.1%, the viability, T/C [35] was 9.35% and the viability, T/C [36] was 8.57%.
With `CC1COCCN1c1cc(C2(S(C)(=N)=O)CC2)nc(-c2ccnc3[nH]ccc23)n1` (centres undefined) + Cc1cccc(N(C)C(=O)C2C(O)CCN2c2nc(C)cc(C(F)(F)F)c2C#N)c1 the IC50 (second compound 0.0316 µM) was greater than 10000 nM, the IC50 (second compound 0.1 µM) was greater than 10000 nM and the IC50 (second compound 0.316 µM) was greater than 10000 nM. It also gave an IC50 (second compound 1 µM) greater than 10000 nM, an IC50 (second compound 3.16 µM) of 8080 nM and an IC50 (second compound 10 µM) of 4880 nM. For the same compound, the viability, T/C [1] was 99.8%, the viability, T/C [2] was 95.3% and the viability, T/C [3] was 95%. For the same compound, the viability, T/C [4] was 105%, the viability, T/C [5] was 93.3% and the viability, T/C [6] was 53%. The viability, T/C [7] was 112%, the viability, T/C [8] was 95.4% and the viability, T/C [9] was 97.1%. The viability, T/C [10] was 99.7%, the viability, T/C [11] was 82.6% and the viability, T/C [12] was 62.9%. The viability, T/C [13] was 102%, the viability, T/C [14] was 100% and the viability, T/C [15] was 104%. It also gave a viability, T/C [16] of 101%, a viability, T/C [17] of 77.5% and a viability, T/C [18] of 56.8%. The viability, T/C [19] was 96.5%, the viability, T/C [20] was 105% and the viability, T/C [21] was 99.3%. It also gave a viability, T/C [22] of 88.9%, a viability, T/C [23] of 86.9% and a viability, T/C [24] of 56%. For the same compound, the viability, T/C [25] was 101%, the viability, T/C [26] was 96.8% and the viability, T/C [27] was 103%. It also gave a viability, T/C [28] of 93.1%, a viability, T/C [29] of 85.7% and a viability, T/C [30] of 42.1%. It also gave a viability, T/C [31] of 98.5%, a viability, T/C [32] of 94% and a viability, T/C [33] of 96.8%. The viability, T/C [34] was 91.5%, the viability, T/C [35] was 71.4% and the viability, T/C [36] was 14.7%.
